Test results from patent US20080200490A1, “Alpha-(Aryl-or Heteroaryl-Methyl)-Beta-Piperidino Propanamide Compounds as Orl-1-Receptor Antagonists” (PFIZER INC., priority 2005, published 2008).
Counter-ions that a name gives are not always drawn.

Molecular target: T1, HERG (Homo sapiens, UniProt Q12809)
T1 construct: expressed in transfected cells; host or cells: HEK-293
Test: not given
Type: binding
Settings: not given
Experimental: Cell paste of HEK-293 cells expressing the HERG product was suspended in 10-fold volume of 50 mM Tris buffer adjusted at pH 7.5 at 25° C. with 2 M HCl containing 1 mM MgCl2, 10 mM KCl. The cells were homogenized using a Polytron homogenizer (at the maximum power for 20 seconds) and centrifuged at 48,000 g for 20 minutes at 4° C. The pellet was resuspended, homogenized and centrifuged once more in the same manner. The resultant supernatant was discarded and the final pellet was resuspended (10-fold volume of 50 mM Tris buffer) and homogenized at the maximum power for 20 seconds. The membrane homogenate was aliquoted and stored at −80° C. until use. An aliquot was used for protein concentration determination using a Protein Assay Rapid Kit and ARVO SX plate reader (Wallac). […] Saturation was determined by incubating 20 μl of [^3H]-dofetilide and 160 μl of membrane homogenates (20-30 μg protein per well) for 60 min at room temperature in the absence or presence of 10 μM dofetilide at final concentrations (20 μl) for total or nonspecific binding, respectively. […] Receptor-bound radioactivity was quantified by liquid scintillation counting using Packard LS counter.
For the competition assay, compounds were diluted in 96 well polypropylene plates as 4-point dilutions in semi-log format. […] Receptor-bound radioactivity was quantified by counting Wallac MicroBeta plate counter. […]

T1 sequence (Q12809 whole entry): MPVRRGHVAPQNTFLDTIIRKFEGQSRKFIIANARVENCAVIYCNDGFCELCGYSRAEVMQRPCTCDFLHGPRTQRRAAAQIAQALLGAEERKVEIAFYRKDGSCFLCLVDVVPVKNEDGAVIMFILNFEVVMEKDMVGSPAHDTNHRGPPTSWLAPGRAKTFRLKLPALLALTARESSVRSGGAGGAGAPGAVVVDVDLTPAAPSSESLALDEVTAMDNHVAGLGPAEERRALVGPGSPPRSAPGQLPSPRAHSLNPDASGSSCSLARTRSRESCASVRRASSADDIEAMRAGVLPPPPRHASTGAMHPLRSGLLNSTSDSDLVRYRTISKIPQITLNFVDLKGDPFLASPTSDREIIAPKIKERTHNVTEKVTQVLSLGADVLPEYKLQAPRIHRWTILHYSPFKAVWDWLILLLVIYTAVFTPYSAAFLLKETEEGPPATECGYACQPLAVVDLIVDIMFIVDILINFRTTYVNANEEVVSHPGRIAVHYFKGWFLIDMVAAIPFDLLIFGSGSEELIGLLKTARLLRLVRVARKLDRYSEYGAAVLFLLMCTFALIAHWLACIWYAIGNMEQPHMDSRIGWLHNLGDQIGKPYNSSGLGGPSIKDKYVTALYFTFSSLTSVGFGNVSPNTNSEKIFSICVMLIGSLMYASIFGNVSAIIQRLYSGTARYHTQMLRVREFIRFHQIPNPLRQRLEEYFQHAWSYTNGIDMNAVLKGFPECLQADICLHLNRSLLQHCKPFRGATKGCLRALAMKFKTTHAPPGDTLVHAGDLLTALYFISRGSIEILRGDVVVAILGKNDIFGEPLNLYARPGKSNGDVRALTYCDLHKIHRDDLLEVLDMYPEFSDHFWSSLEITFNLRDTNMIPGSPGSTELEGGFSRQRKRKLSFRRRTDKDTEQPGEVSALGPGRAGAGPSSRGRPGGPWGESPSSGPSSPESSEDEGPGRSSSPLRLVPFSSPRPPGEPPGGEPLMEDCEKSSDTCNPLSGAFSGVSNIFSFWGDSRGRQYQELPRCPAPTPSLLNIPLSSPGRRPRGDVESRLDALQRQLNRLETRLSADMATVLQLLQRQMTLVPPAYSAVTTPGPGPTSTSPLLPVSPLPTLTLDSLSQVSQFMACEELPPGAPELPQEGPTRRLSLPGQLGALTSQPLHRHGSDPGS

`CN1C(=O)C(CN2CCC3(CCc4ccccc43)CC2)Cc2ccccc21` (stereo not drawn) [Compound (I)] was tested, and the “activity in the dofetilide binding assay” value was “potent activity”.

Molecular target: T2, human ORL1 receptor (Homo sapiens, UniProt P41146)
T2 construct: purchased PerkinElmer; host or cells: HEK-293 cells transfected with human ORL1 receptor (membranes)
T2 sequence (P41146 whole entry): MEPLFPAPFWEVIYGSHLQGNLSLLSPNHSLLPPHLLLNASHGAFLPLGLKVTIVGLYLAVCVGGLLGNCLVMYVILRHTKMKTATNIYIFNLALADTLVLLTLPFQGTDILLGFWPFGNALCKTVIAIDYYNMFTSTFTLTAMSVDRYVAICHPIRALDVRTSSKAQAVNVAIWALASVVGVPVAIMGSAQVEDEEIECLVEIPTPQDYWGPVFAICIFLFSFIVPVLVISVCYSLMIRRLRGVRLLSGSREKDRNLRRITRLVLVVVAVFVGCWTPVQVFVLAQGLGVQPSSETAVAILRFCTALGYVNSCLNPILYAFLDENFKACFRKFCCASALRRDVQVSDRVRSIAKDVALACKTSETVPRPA
Test: ORL1-Receptor Binding Assay
Settings: Ki, [3H]nociceptin, human ORL1 receptor transfected HEK-293 cell membranes
Experimental: The human ORL1 receptor transfected HEK-293 cell membranes (PerkinElmer) were incubated for 45 min at room temperature with 0.4 nM [^3H]nociceptin, 1.0 mg of wheat germ agglutinin(WGA)-coated SPA beads and various concentrations of test compounds in a final volume of 200 μL of 50 mM HEPES buffer pH 7.4 containing 10 mM MgCl2 and 1 mM EDTA. Non-specific binding (NSB) was determined by the addition of 1 μM unlabeled nociceptin. After the reaction, the assay plate was centrifuged at 1,000 rpm for 1 min and then the radioactivity was measured by WALLAC 1450 MicroBeta Trilux.
The compounds of the examples were tested in the ORL1 Receptor Binding assay.

In the case of `CN(C)C(=O)C(Cc1cscn1)CN1C2CCC1CC1(C2)OCc2ccccc21` (stereo not drawn) [Example 1, N,N-DIMETHYL-3-(3′H,8H-SPIRO[8-AZABICYCLO[3.2.1]OCTANE-3,1′-[2]BENZOFURAN]-8-YL)-2-(1,3-THIAZOL-4-YLMETHYL)P[…], CITRATE], the Ki is reported as 1.8 nM.

Same assay, conditions: [3H]nociceptin, human ORL1 receptor transfected HEK-293 cell membranes; read-out: Ki

Compared with `CN(C)C(=O)C(CN1C2CCC1CC1(C2)OCc2ccc(F)cc21)Cn1cccn1` (single isomer, unassigned) [Example 8, 3-(6′-FLUORO-3′H,8H-SPIRO[8-AZABICYCLO[3.2.1]OCTANE-3,1′-[2]BENZOFURAN]-8-YL)-N,N-DIMETHYL-2-(1H-PYRAZOL-1-YLMETHYL)P[…], CITRATE], `CN(C)C(=O)C(CN1C2CCC1CC1(C2)OCCc2cc(F)ccc21)Cn1cccn1` (single isomer, unassigned; (+)) [Example 12, (+)-3-(6′-FLUORO-3′,4′-DIHYDRO-8H-SPIRO[8-AZABICYCLO[3.2.1]OCTANE-3,1′-ISOCHROMEN]-8-YL)-N,N-DIMETHYL-2-(1H-PYRAZOL-1-YLMETHYL)P[…], CITRATE] is 54-fold higher in Ki: 2.6 nM for the first, 140 nM for the second. The first binds more tightly here.

Compared with `CN(C)C(=O)C(CN1C2CCC1CC1(C2)OCc2ccccc21)Cn1cccn1` (single isomer, unassigned; (+)) [Example 3, (+)-N,N-DIMETHYL-3-(1H-PYRAZOL-1-YL)-2-(3′H,8H-SPIRO[8-AZABICYCLO[3.2.1]OCTANE-3,1′-[2]BENZOFURAN]-8-YLMETHYL)P[…], CITRATE], `CN(C)C(=O)C(CN1C2CCC1CC1(C2)OCCc2ccccc21)Cn1cccn1` (stereo not drawn) [Example 10, 3-(3′,4′-DIHYDRO-8H-SPIRO[8-AZABICYCLO[3.2.1]OCTANE-3,1′-ISOCHROMEN]-8-YL)-N,N-DIMETHYL-2-(1H-PYRAZOL-1-YLMETHYL)P[…], CITRATE] is 3.6-fold higher in Ki: 2 nM for the first, 7.2 nM for the second.

First: CN(C)C(=O)C(CN1C2CCC1CC1(C2)OCc2ccc(F)cc21)Cn1cccn1 (single isomer, unassigned; (-)) [Example 7, (−)-3-(6′-FLUORO-3′H,8H-SPIRO[8-AZABICYCLOr3.2.1]OCTANE-3,1′-[2]BENZOFURAN]-8-YL)-N,N-DIMETHYL-2-(1H-PYRAZOL-1-YLMETHYL)PROPANAMIDE]
Second: CN(C)C(=O)C(CN1C2CCC1CC1(C2)OCCc2cc(F)ccc21)Cn1cccn1 (single isomer, unassigned; (-)) [Example 13, (−)-3-(6′-FLUORO-3′,4′-DIHYDRO-8H-SPIRO[8-AZABICYCLO[3.2.1]OCTANE-3,1′-ISOCHROMEN]-8-YL)-N,N-DIMETHYL-2-(1H-PYRAZOL-1-YLMETHYL)PROPANAMIDE]
The Ki of the first is 3.6-fold higher: 3.6 nM for the first, 1 nM for the second.

Going from `CN(C)C(=O)C(CN1C2CCC1CC1(C2)OCc2ccccc21)Cn1cccn1` (stereo not drawn) [Example 2, N,N-DIMETHYL-3-(1H-PYRAZOL-1-YL)-2-(3′H,8H-SPIRO[8-AZABICYCLO[3.2.1]OCTANE-3,1′-[2]BENZOFURAN]-8-YLMETHYL)P[…], CITRATE] to `CN(C)C(=O)C(CN1C2CCC1CC1(C2)OCc2ccc(F)cc21)Cn1cccn1` (stereo not drawn) [Example 5, 3-(6′-FLUORO-3′H,8H-SPIRO[8-AZABICYCLO[3.2.1]OCTANE-3,1′-[2]BENZOFURAN]-8-YL)-N,N-DIMETHYL-2-(1H-PYRAZOL-1-YLMETHYL)P[…], CITRATE], the Ki rises from 2.4 nM to 3.6 nM (1.5-fold).

First: CN(C)C(=O)C(Cc1cscn1)CN1C2CCC1CC1(C2)OCc2ccc(F)cc21 (stereo not drawn) [Example 9, 3-(6′-FLUORO-3′H,8H-SPIRO[8-AZABICYCLO[3.2.1]OCTANE-3,1′-[2]BENZOFURAN]-8-YL)-N,N-DIMETHYL-2-(1,3-THIAZOL-4-YLMETHYL) P[…]]
Second: CN(C)C(=O)C(CN1C2CCC1CC1(C2)OCCc2cc(F)ccc21)Cn1cccn1 (stereo not drawn) [Example 11, 3-(6′-FLUORO-3′,4′-DIHYDRO-8H-SPIRO[8-AZABICYCLO[3.2.1]OCTANE-3,1′-ISOCHROMEN]-8-YL)—N,N-DIMETHYL-2-(1H-PYRAZOL-1-YLMETHYL)P[…], CITRATE]
The Ki of the first is 2.9-fold higher: 3.8 nM for the first, 1.3 nM for the second. The second binds more tightly here.
